Source: publication PMC9652372, “Glycolytic flux control by drugging phosphoglycolate phosphatase” (Nature Communications, 2022)
Values joined by “and” are separate entries in the source; they are usually repeats but may differ in a detail not shown here. Equal values may be shown once.

Tests used:
[1] = target: T1, PGP (Mus musculus, UniProt Q8CHP8); test: Steady state kinetics of PG dephosphorylation in presence of CP1-3
T1 sequence (Q8CHP8 1-321): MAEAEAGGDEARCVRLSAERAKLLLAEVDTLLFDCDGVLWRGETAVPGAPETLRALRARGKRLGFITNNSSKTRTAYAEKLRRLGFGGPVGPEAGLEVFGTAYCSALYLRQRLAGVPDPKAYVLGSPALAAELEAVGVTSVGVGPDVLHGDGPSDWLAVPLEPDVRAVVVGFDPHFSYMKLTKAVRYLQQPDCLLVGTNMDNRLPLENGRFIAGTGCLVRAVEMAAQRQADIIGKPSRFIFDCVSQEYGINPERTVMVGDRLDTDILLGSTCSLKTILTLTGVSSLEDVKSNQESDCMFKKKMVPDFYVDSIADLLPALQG

[2] = target: T2, murine PGP (Mus musculus, UniProt Q8CHP8); test: SAR: CP1, CP2 and analogs on PGP phosphatase activity (PG); format: biochemical; design: His6 (N, cleaved yes); made in house; host or cells: Escherichia coli BL21 (DE3), pETM11, co-expressed with groES-groEL-tig
T2 sequence (Q8CHP8 1-321): T1 sequence (Q8CHP8 1-321)
Protocol: However, the DMSO concentration was kept constant across each assay. For SAR experiments, all compound stocks were prepared at 10 mM in 100% DMSO. A constant final DMSO concentration of 0.4% was maintained under all conditions, and solvent control samples contained 0.4% DMSO without compounds.
PGP phosphatase activity were assessed using recombinant, purified murine PGP and PG as a

[3] = PG dephosphorylation, increasing CP concentrations

SMILES: COc1ccc(C(=O)Nc2ccc(Cc3ccc(NC(=O)c4ccc(OC)c(OC)c4)c(C(=O)O)c3)cc2C(=O)O)cc1OC [CP2]
- PGP activity ([1]; 1 µM CP2, PG 100 µM): 4.865 µmol Pi/min/mg and 4.265 µmol Pi/min/mg and 4.986 µmol Pi/min/mg
- PGP activity ([1]; 1 µM CP2, PG 200 µM): 9.31 µmol Pi/min/mg and 8.409 µmol Pi/min/mg and 9.7309 µmol Pi/min/mg
- PGP activity ([1]; 1 µM CP2, PG 300 µM): 14.9605 µmol Pi/min/mg and 10.9951 µmol Pi/min/mg and 14.0593 µmol Pi/min/mg
- PGP activity ([1]; 1 µM CP2, PG 400 µM): 18.0247 µmol Pi/min/mg and 16.763 µmol Pi/min/mg and 17.3037 µmol Pi/min/mg
- PGP activity ([1]; 1 µM CP2, PG 500 µM): 19.8272 µmol Pi/min/mg and 20.5481 µmol Pi/min/mg and 19.4667 µmol Pi/min/mg
- PGP activity ([1]; 1 µM CP2, PG 600 µM): 21.8099 µmol Pi/min/mg and 21.6296 µmol Pi/min/mg
- PGP activity ([1]; 1 µM CP2, PG 700 µM): 22.7111 µmol Pi/min/mg and 24.1531 µmol Pi/min/mg and 23.6123 µmol Pi/min/mg
- PGP activity ([1]; 1 µM CP2, PG 800 µM): 21.8099 µmol Pi/min/mg and 23.0716 µmol Pi/min/mg and 24.8741 µmol Pi/min/mg
- PGP activity ([1]; 2 µM CP2, PG 25 µM): 0.7809 µmol Pi/min/mg and 0.7208 µmol Pi/min/mg and 0.9611 µmol Pi/min/mg
- PGP activity ([1]; 2 µM CP2, PG 50 µM): 1.081 µmol Pi/min/mg and 1.682 µmol Pi/min/mg and 1.982 µmol Pi/min/mg
- PGP activity ([1]; 2 µM CP2, PG 100 µM): 2.9433 µmol Pi/min/mg and 3.424 µmol Pi/min/mg and 3.784 µmol Pi/min/mg
- PGP activity ([1]; 2 µM CP2, PG 200 µM): 6.247 µmol Pi/min/mg and 7.088 µmol Pi/min/mg and 7.028 µmol Pi/min/mg
- PGP activity ([1]; 2 µM CP2, PG 300 µM): 7.39 µmol Pi/min/mg and 11.3555 µmol Pi/min/mg and 12.0765 µmol Pi/min/mg
- PGP activity ([1]; 2 µM CP2, PG 400 µM): 12.7975 µmol Pi/min/mg and 13.6988 µmol Pi/min/mg and 14.4198 µmol Pi/min/mg
- PGP activity ([1]; 2 µM CP2, PG 500 µM): 16.763 µmol Pi/min/mg and 16.4025 µmol Pi/min/mg
- PGP activity ([1]; 2 µM CP2, PG 600 µM): 17.8444 µmol Pi/min/mg and 17.3037 µmol Pi/min/mg and 17.6642 µmol Pi/min/mg
- PGP activity ([1]; 2 µM CP2, PG 700 µM): 19.2864 µmol Pi/min/mg and 19.1062 µmol Pi/min/mg
- PGP activity ([1]; 2 µM CP2, PG 800 µM): 20.3679 µmol Pi/min/mg and 20.7284 µmol Pi/min/mg and 19.2864 µmol Pi/min/mg
- PGP activity ([1]; 4 µM CP2, PG 50 µM): 1.502 µmol Pi/min/mg and 0.7809 µmol Pi/min/mg and 1.321 µmol Pi/min/mg
- PGP activity ([1]; 4 µM CP2, PG 100 µM): 2.523 µmol Pi/min/mg and 1.742 µmol Pi/min/mg and 2.222 µmol Pi/min/mg
- PGP activity ([1]; 4 µM CP2, PG 200 µM): 4.745 µmol Pi/min/mg and 4.565 µmol Pi/min/mg
- PGP activity ([1]; 4 µM CP2, PG 300 µM): 8.4716 µmol Pi/min/mg and 6.669 µmol Pi/min/mg and 5.7679 µmol Pi/min/mg
- PGP activity ([1]; 4 µM CP2, PG 400 µM): 10.8148 µmol Pi/min/mg and 9.012 µmol Pi/min/mg
- PGP activity ([1]; 4 µM CP2, PG 500 µM): 11.1753 µmol Pi/min/mg and 11.8963 µmol Pi/min/mg and 10.8148 µmol Pi/min/mg
- PGP activity ([1]; 4 µM CP2, PG 600 µM): 12.437 µmol Pi/min/mg and 12.9778 µmol Pi/min/mg
- PGP activity ([1]; 4 µM CP2, PG 700 µM): 13.5185 µmol Pi/min/mg and 14.0593 µmol Pi/min/mg and 12.9778 µmol Pi/min/mg
- PGP activity ([1]; 4 µM CP2, PG 800 µM): 13.3383 µmol Pi/min/mg and 13.879 µmol Pi/min/mg and 14.6 µmol Pi/min/mg
- vmax ([1]; CP 1.0 µM): 49.7 ± 4.0 µmol/min/mg
- vmax ([1]; CP 2.0 µM): 51.9 ± 5.9 µmol/min/mg
- vmax ([1]; CP 4.0 µM): 36.9 ± 4.8 µmol/min/mg
- effect on vmax (reduction) [1, 3]: without affecting vmax
- increase of KM [1, 3]: ~ 3 fold
- inhibition of mPGP activity at 40 µM CP compared to DMSO control (%) ([2]; 40 µM CP, single experiments Exp #1-3): 91.3408% and 89.3401% and 90.1099%
- remaining activity at 16 µM ([2]; CP log[M] -4.79588, read-out: mPGP activity in presence of CP relative to DMSO controls, mPGP on PG (norm.)): 20.6%
- remaining activity at 4 µM ([2]; CP log[M] -5.39794, read-out: mPGP activity in presence of CP relative to DMSO controls, mPGP on PG (norm.)): 34.3%
- remaining activity at 2 µM ([2]; CP log[M] -5.69897, read-out: mPGP activity in presence of CP relative to DMSO controls, mPGP on PG (norm.)): 51.6%
- remaining activity at 1 µM ([2]; CP log[M] -6, read-out: mPGP activity in presence of CP relative to DMSO controls, mPGP on PG (norm.)): 67.7%
- remaining activity at 0.5 µM ([2]; CP log[M] -6.30103, read-out: mPGP activity in presence of CP relative to DMSO controls, mPGP on PG (norm.)): 69%
- remaining activity at […] ([2]; CP log[M] -6.60206, read-out: mPGP activity in presence of CP relative to DMSO controls, mPGP on PG (norm.)): 72.6%
- remaining activity at 0.125 µM ([2]; CP log[M] -6.90309, read-out: mPGP activity in presence of CP relative to DMSO controls, mPGP on PG (norm.)): 81.8%
- remaining activity at 0.0625 µM ([2]; CP log[M] -7.20412, read-out: mPGP activity in presence of CP relative to DMSO controls, mPGP on PG (norm.)): 84.3%
- remaining activity at 0.015625 µM ([2]; CP log[M] -7.80618, read-out: mPGP activity in presence of CP relative to DMSO controls, mPGP on PG (norm.)): 96%
